Laboratory results reported in publication PMC7932555, “A diffusible signal factor of the intestine dictates Salmonella invasion through its direct control of the virulence activator HilD” (PLoS Pathogens, 2021).

Target: T1, HilD^Q290A (Salmonella typhimurium, UniProt P0CL08, Q290A)
T1 construct: made in house; host or cells: E. coli BL21 (DE3)
T1 sequence (P0CL08 1-309 Q290A): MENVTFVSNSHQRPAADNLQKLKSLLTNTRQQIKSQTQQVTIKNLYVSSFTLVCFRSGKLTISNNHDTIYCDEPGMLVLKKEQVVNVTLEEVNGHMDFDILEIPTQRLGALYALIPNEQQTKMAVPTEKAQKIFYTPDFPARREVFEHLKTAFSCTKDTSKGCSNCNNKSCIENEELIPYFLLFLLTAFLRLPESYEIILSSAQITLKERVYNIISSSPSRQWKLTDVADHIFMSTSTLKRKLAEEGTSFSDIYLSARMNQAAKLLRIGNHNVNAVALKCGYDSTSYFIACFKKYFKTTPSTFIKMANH
Experiment: EMSA of hilA promoter DNA with HilD Q290A
Format: biochemical
Settings: 10 nM hilA promoter DNA, 30 μM fatty acid
Method: These were performed as previously described. Briefly, 10 nM hilA promoter DNA (-286 to +31) was mixed with 150 nM HilD in a binding buffer (100 mM Tris pH 7.5, 10 mM EDTA, 1M KCl, 1 mM DTT, 50% v/v glycerol). Fatty acids or control solvents were added at various concentrations. Binding reaction was performed at room temperature for 1 hour. Dye solution was added to final concentration of 1X and samples were separated on 10% acrylamide gels. DNA was stained using SYBR Safe and visualized in BioRad GelDoc imaging system.

## CCCCCCCCCCCCC/C=C/C(=O)O [t2-HDA, trans-2-hexadecenoic acid]
  effect on HilD binding to hilA promoter DNA: did not disrupt DNA binding
